Tested on: ROS 17/2 cells
Assay: Anti-PDGF antibody neutralization in ROS 17/2 cells
Assay type: cell-based, rat
Settings: intermediate doses of HBMCM preparations
Description: Anti-PDGF antibody neutralization experiments were carried out with polyclonal antiserum prepared in rabbits against PDGF. PDGF or HBMCM-derived preparations were added to ROS 17/2 cells in the presence or absence of antibody and examined for effects on [^3 H]TdR incorporation.

PDGF
effect of polyclonal anti-PDGF antibodies on mitogenic effect: inhibited PDGF-stimulated replication

From patent US5461034A, “Osteogenic growth polypeptides identified from regenerating bone marrow” (Yissum Research Development Company of the Hebrew …, priority 1993, dated 1995)
